The source made the active and inactive calls. No cut-off for these calls is given here.
Key:
[1] = […] in ICR mouse model of Cryptococcal meningitis infected with Cryptococcus neoformans H99 assessed as median survival time at 15 mg/kg, IG administered daily (reference value: 11 day); type: organism-based; conditions: in vivo, po, 264 h
[2] = Metabolic stability in mouse liver microsomes assessed as clearance; type: ADME, Microsome
Nakaseomyces glabratus [3] = experiment: microbe, parasite or virus in culture; type: functional, organism-based; conditions: Nakaseomyces glabratus, 9073, 48 h
Description: Antifungal activity against Candida glabrata 9073 assessed as inhibition of fungal growth incubated for 48 hrs by microdilution method

Cryptococcus neoformans [4] = experiment: Inhibition of Cryptococcus neoformans H99 delta5,6-desaturase assessed as upregulation of ERG1 gene expression at 2 ug/ml incubated for 24 hrs by RT-PCR analysis; conditions: dose 2.0 µg/ml
[5] = microbe, parasite or virus in culture; type: functional; conditions: Cryptococcus; time 72 hrs
Description: Anti-cryptococcal activity against Cryptococcus assessed as inhibition of fungal growth incubated for 72 hrs by microdilution method

Cryptococcus neoformans [6] = experiment: Anti-cryptococcal activity against Cryptococcus neoformans H99 assessed as efflux of cell contents at 4 ug/ml incubated for 8 hrs by transmission electron microscopy; type: functional, organism-based; conditions: dose 4.0 µg/ml
Cryptococcus neoformans [7] = experiment: Inhibition of Cryptococcus neoformans H99 delta5,6-desaturase assessed as upregulation of ERG3 under stress condition at 0.25 to 1 ug/ml incubated for 24 hrs by RT-PCR analysis; conditions: dose 0.25-1 µg/ml, DDE = dose-dependent effect
Cryptococcus neoformans [8] = experiment: Inhibition of Cryptococcus neoformans H99 delta5,6-desaturase assessed as blockade of ergosterol biosynthesis pretreated at 3 ug/ml followed by addition of ERG enzymes incubated for 24 hrs in presence of NADPH by GC-MS analysis; conditions: dose 3.0 µg/ml
Candida albicans [9] = experiment: Antifungal activity against Candida albicans SC3514 assessed as low level of ergosta-7,22-dien-3-ol at 2 ug/ml incubated for 24 hrs in presence of NADPH by GC-MS analysis; type: functional, organism-based; conditions: dose 2.0 µg/ml
Cryptococcus neoformans [10] = experiment: Inhibition of Cryptococcus neoformans H99 delta5,6-desaturase assessed as blockade of ergosterol biosynthesis at 0.5 ug/ml pretreated with ERG enzymes followed by compound addition incubated for 24 hrs in presence of NADPH by GC-MS analysis; conditions: dose 0.5 µg/ml
Candida albicans [11] = experiment: microbe, parasite or virus in culture; type: functional, organism-based; conditions: SC5314, 48 h
Description: Antifungal activity against Candida albicans SC5314 assessed as inhibition of fungal growth incubated for 48 hrs by microdilution method

Cryptococcus neoformans [12] = experiment: Inhibition of Cryptococcus neoformans H99 delta5,6-desaturase assessed as change in sterol content at 2 ug/ml incubated for 24 hrs by GC-MS analysis; conditions: dose 2.0 µg/ml
Cryptococcus neoformans [13] = experiment: Inhibition of biofilm formation in Cryptococcus neoformans H99 at 0.5 to 8 ug/ml incubated for 24 hrs by XTT reduction assay; type: functional, organism-based; conditions: dose 0.5-8 µg/ml, DDE = dose-dependent effect
Cryptococcus neoformans [14] = experiment: Inhibition of Cryptococcus neoformans H99 delta5,6-desaturase assessed as upregulation of ERG2 gene expression at 2 ug/ml incubated for 24 hrs by RT-PCR analysis; conditions: dose 2.0 µg/ml
Cryptococcus neoformans [15] = experiment: Inhibition of Cryptococcus neoformans H99 delta5,6-desaturase assessed as upregulation of ERG4 gene expression at 2 ug/ml incubated for 24 hrs by RT-PCR analysis; conditions: dose 2.0 µg/ml
Cryptococcus neoformans [16] = experiment: Inhibition of Cryptococcus neoformans H99 delta5,6-desaturase assessed as upregulation of ERG5 gene expression at 2 ug/ml incubated for 24 hrs by RT-PCR analysis; conditions: dose 2.0 µg/ml
Cryptococcus neoformans [17] = experiment: Anti-cryptococcal activity against Cryptococcus neoformans H99 assessed as cell membrane damage at 0.5 to 4 ug/ml incubated for 8 hrs by transmission electron microscopy; type: functional, organism-based; conditions: dose 0.5-4 µg/ml, DDE = dose-dependent effect
[Candida] auris [18] = microbe, parasite or virus in culture; type: functional, organism-based; conditions: Candidozyma auris, 0029, 48 h
Description: Antifungal activity against Candida auris 0029 assessed as inhibition of fungal growth incubated for 48 hrs by microdilution method

Candida tropicalis = experiment: microbe, parasite or virus in culture; type: functional, organism-based; conditions: Candida tropicalis, 10186, 48 h
Description: Antifungal activity against Candida tropicalis 10186 assessed as inhibition of fungal growth incubated for 48 hrs by microdilution method

Cryptococcus neoformans [19] = experiment: Inhibition of Cryptococcus neoformans H99 delta5,6-desaturase assessed as increase in ergosta-7,22-dien-3-ol levels at 0.125 to 2 ug/ml incubated for 24 hrs by GC-MS analysis; conditions: dose 0.125-2 µg/ml, DDE = dose-dependent effect
Cryptococcus neoformans [20] = experiment: Anti-cryptococcal activity against Cryptococcus neoformans H99 assessed as inhibition of fungal growth at 1 ug/ml measured after 72 hrs by time-growth curve assay; type: functional, organism-based; conditions: dose 1.0 µg/ml
Pichia kudriavzevii = experiment: microbe, parasite or virus in culture; type: functional, organism-based; conditions: Pichia kudriavzevii, 10153, 48 h
Description: Antifungal activity against Candida krusei 10153 assessed as inhibition of fungal growth incubated for 48 hrs by microdilution method

Nakaseomyces glabratus [21] = experiment: microbe, parasite or virus in culture; type: functional, organism-based; conditions: Nakaseomyces glabratus, 9025, 48 h
Description: Antifungal activity against Candida glabrata 9025 assessed as inhibition of fungal growth incubated for 48 hrs by microdilution method

[22] = Cytotoxicity against HUVEC cells; conditions: human
Candida albicans [23] = experiment: microbe, parasite or virus in culture; type: functional, organism-based; conditions: Candida albicans, 904, 48 h
Description: Antifungal activity against Candida albicans 904 assessed as inhibition of fungal growth incubated for 48 hrs by microdilution method

Cryptococcus = experiment: Fungicidal activity against Cryptococcus assessed as ratio of MFC to MIC; type: functional
Cryptococcus neoformans [24] = experiment: Fungicidal activity against Cryptococcus neoformans H99 assessed as fungal growth inhibition incubated upto 72 hrs by time-fungicidal curve assay; type: functional
Cryptococcus neoformans [25] = experiment: Inhibition of Cryptococcus neoformans H99 delta5,6-desaturase assessed as decrease in ergosterol level at 1 ug/ml incubated for 24 hrs by GC-MS analysis; conditions: dose 1.0 µg/ml
Cryptococcus neoformans [26] = experiment: Anti-cryptococcal activity against Cryptococcus neoformans H99 assessed as cell membrane damage at 4 ug/ml incubated for 8 hrs by transmission electron microscopy; type: functional, organism-based; conditions: dose 4.0 µg/ml
[Candida] auris [27] = Antifungal activity against Candida auris 15448 assessed as inhibition of fungal growth incubated for 48 hrs by microdilution method; type: functional, organism-based; conditions: Candidozyma auris, 15448, 48 h
Aspergillus fumigatus [28] = experiment: microbe, parasite or virus in culture; type: functional, organism-based; conditions: 023-2, 48 h
Description: Antifungal activity against Aspergillus fumigatus 023-2 assessed as inhibition of fungal growth incubated for 48 hrs by microdilution method

Cryptococcus neoformans [29] = experiment: Inhibition of Cryptococcus neoformans H99 delta5,6-desaturase assessed as upregulation of ERG11 at 0.25 to 1 ug/ml incubated for 24 hrs by RT-PCR analysis; conditions: dose 0.25-1 µg/ml, DDE = dose-dependent effect
Candida albicans [30] = experiment: Upregulation of ERG11 in Candida albicans SC3514 at 0.5 ug/ml incubated for 24 hrs by RT-PCR analysis; type: functional; conditions: dose 0.5 µg/ml
[Candida] auris [31] = microbe, parasite or virus in culture; type: functional, organism-based; conditions: Candidozyma auris, 0030, 48 h
Description: Antifungal activity against Candida auris 0030 assessed as inhibition of fungal growth incubated for 48 hrs by microdilution method

Cryptococcus neoformans [32] = experiment: Inhibition of Cryptococcus neoformans H99 delta5,6-desaturase assessed as upregulation of ERG11 gene expression at 2 ug/ml incubated for 24 hrs by RT-PCR analysis; conditions: dose 2.0 µg/ml
Cryptococcus neoformans [33] = experiment: Inhibition of biofilm formation in Cryptococcus neoformans H99 at 2 ug/ml incubated for 24 hrs by XTT reduction assay; type: functional
Cryptococcus neoformans [34] = experiment: microbe, parasite or virus in culture; type: functional, organism-based; conditions: H99, 72 h
Description: Anti-cryptococcal activity against Cryptococcus neoformans H99 assessed as inhibition of fungal growth incubated for 72 hrs by microdilution method

Cryptococcus neoformans [35] = experiment: Inhibition of Cryptococcus neoformans H99 delta5,6-desaturase assessed as upregulation of ERG24 gene expression at 2 ug/ml incubated for 24 hrs by RT-PCR analysis; conditions: dose 2.0 µg/ml
Candida albicans [36] = experiment: Antifungal activity against Candida albicans SC3514 assessed as decrease in ergosterol content at 2 ug/ml incubated for 24 hrs in presence of NADPH by GC-MS analysis; type: functional, organism-based; conditions: dose 2.0 µg/ml
Aspergillus fumigatus [37] = experiment: microbe, parasite or virus in culture; type: functional, organism-based; conditions: Aspergillus fumigatus, 7544, 48 h
Description: Antifungal activity against Aspergillus fumigatus 7544 assessed as inhibition of fungal growth incubated for 48 hrs by microdilution method

Candida albicans [38] = experiment: microbe, parasite or virus in culture; type: functional, organism-based; conditions: Candida albicans, 0304103, 48 h
Description: Antifungal activity against Candida albicans 0304103 assessed as inhibition of fungal growth incubated for 48 hrs by microdilution method

Cryptococcus neoformans [39] = experiment: Anti-cryptococcal activity against Cryptococcus neoformans H99 assessed as inhibition of fungal growth at 8 ug/ml measured after 72 hrs by time-growth curve assay; type: functional; parameters: scale not given: the % may be the effect or the level left; conditions: dose 8 µg/ml
Candida albicans [40] = experiment: Upregulation of ERG3 in Candida albicans SC3514 at 0.5 ug/ml incubated for 24 hrs by RT-PCR analysis; type: functional; conditions: dose 0.5 µg/ml
Cryptococcus neoformans [41] = experiment: Inhibition of Cryptococcus neoformans H99 delta5,6-desaturase assessed as upregulation of ERG3 gene expression at 2 ug/ml incubated for 24 hrs by RT-PCR analysis; conditions: dose 2.0 µg/ml
[42] = Metabolic stability in mouse liver microsomes assessed as half life; type: ADME, Microsome

**Q.** For `Cl.Clc1ccc(C2CCC(NCCC3CCOCC3)c3ccsc32)cc1Cl` (stereo not given), which MST [1] is on record?
**A.** 14 days

**Q.** And the CLH [2]?
**A.** 136 µL/min/mg

**Q.** What about the IC50 (Nakaseomyces glabratus [3]) of the same compound?
**A.** 32 µg/mL

**Q.** And the Activity (Cryptococcus neoformans [4])?
**A.** Active

**Q.** What about the MIC50 [5] of the same compound?
**A.** 0.62 µg/mL

**Q.** And the Activity (Cryptococcus neoformans [6])?
**A.** Active

**Q.** What about the Activity (Cryptococcus neoformans [7]) of the same compound?
**A.** Dde

**Q.** What about the Activity (Cryptococcus neoformans [8]) of the same compound?
**A.** Active

**Q.** What about the Activity (Candida albicans [9]) of the same compound?
**A.** Active

**Q.** And the Activity (Cryptococcus neoformans [10])?
**A.** Active

**Q.** What about the IC50 (Candida albicans [11]) of the same compound?
**A.** 32 µg/mL

**Q.** What about the Activity (Cryptococcus neoformans [12]) of the same compound?
**A.** Active

**Q.** And the inhibition (Cryptococcus neoformans [13])?
**A.** Dde

**Q.** And the Activity (Cryptococcus neoformans [14])?
**A.** Active

**Q.** What about the Activity (Cryptococcus neoformans [15]) of the same compound?
**A.** Active

**Q.** And the Activity (Cryptococcus neoformans [16])?
**A.** Active

**Q.** And the Activity (Cryptococcus neoformans [17])?
**A.** Dde

**Q.** What about the IC50 ([Candida] auris [18]) of the same compound?
**A.** 16 µg/mL

**Q.** And the IC50 (Candida tropicalis)?
**A.** 32 µg/mL

**Q.** What about the Activity (Cryptococcus neoformans [19]) of the same compound?
**A.** Dde

**Q.** And the Activity (Cryptococcus neoformans [20])?
**A.** Active

**Q.** And the IC50 (Pichia kudriavzevii)?
**A.** 8 µg/mL

**Q.** What about the IC50 (Nakaseomyces glabratus [21]) of the same compound?
**A.** 8 µg/mL

**Q.** What about the IC50 [22] of the same compound?
**A.** 20.2 µM

**Q.** And the IC50 (Candida albicans [23])?
**A.** 32 µg/mL

**Q.** And the Ratio (Cryptococcus)?
**A.** 7.47

**Q.** What about the MFC (Cryptococcus neoformans [24]) of the same compound?
**A.** 8 µg/mL

**Q.** What about the Activity (Cryptococcus neoformans [25]) of the same compound?
**A.** Active

**Q.** And the Activity (Cryptococcus neoformans [26])?
**A.** Active

**Q.** And the IC50 ([Candida] auris [27])?
**A.** 8 µg/mL

**Q.** And the IC50 (Aspergillus fumigatus [28])?
**A.** 32 µg/mL

**Q.** What about the Activity (Cryptococcus neoformans [29]) of the same compound?
**A.** Dde

**Q.** What about the Activity (Candida albicans [30]) of the same compound?
**A.** Active

**Q.** What about the IC50 ([Candida] auris [31]) of the same compound?
**A.** 8 µg/mL

**Q.** What about the Activity (Cryptococcus neoformans [32]) of the same compound?
**A.** Active

**Q.** What about the inhibition at 2 µg/mL (Cryptococcus neoformans [33]) of the same compound?
**A.** 50%

**Q.** And the IC50 (Cryptococcus neoformans [34])?
**A.** 0.5 µg/mL

**Q.** What about the Activity (Cryptococcus neoformans [35]) of the same compound?
**A.** Active

**Q.** And the Activity (Candida albicans [36])?
**A.** Active

**Q.** What about the IC50 (Aspergillus fumigatus [37]) of the same compound?
**A.** 32 µg/mL

**Q.** What about the IC50 (Candida albicans [38]) of the same compound?
**A.** 32 µg/mL

**Q.** And the Activity (Cryptococcus neoformans [39])?
**A.** 100%

**Q.** And the Activity (Candida albicans [40])?
**A.** Active

**Q.** And the Activity (Cryptococcus neoformans [41])?
**A.** Active

**Q.** And the half-life [42]?
**A.** 40.1 min

From ChEMBL document CHEMBL5154781, “Discovery of Novel Sertraline Derivatives as Potent Anti-Cryptococcus Agents” (J Med Chem, 2022)
